Laboratory results as given in patent US20240308960A1 (Sumitomo Pharma Co., Ltd., priority 2021, published 2024).

target: T1, Human orexin receptor type 2 (Homo sapiens, UniProt O43614); test: Test Example 1: agonist activity for orexin receptor type 2 (aequorin luminescence, intracellular calcium mobilization); conditions: compound 10 μm; CHO cells transiently expressing human orexin receptor type 2 and apoaequorin; relative percentage of luminescence for the luminescence (100%) of Orexin A (100 μM)
T1 sequence (O43614 1-444): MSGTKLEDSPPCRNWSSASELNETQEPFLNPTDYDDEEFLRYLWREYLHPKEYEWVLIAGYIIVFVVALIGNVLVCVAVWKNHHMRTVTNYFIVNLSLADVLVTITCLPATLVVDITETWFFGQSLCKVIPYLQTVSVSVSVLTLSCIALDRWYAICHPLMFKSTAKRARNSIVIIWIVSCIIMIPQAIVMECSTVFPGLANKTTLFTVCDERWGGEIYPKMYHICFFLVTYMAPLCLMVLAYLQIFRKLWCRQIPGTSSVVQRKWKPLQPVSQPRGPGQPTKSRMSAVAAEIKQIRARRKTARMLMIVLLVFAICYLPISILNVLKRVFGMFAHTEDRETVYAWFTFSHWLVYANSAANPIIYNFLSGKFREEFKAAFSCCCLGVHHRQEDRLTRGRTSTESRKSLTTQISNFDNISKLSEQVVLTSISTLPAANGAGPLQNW
Protocol: Human orexin receptor type 2 and apoaequorin were transiently expressed in CHO cells, and the agonist activity was evaluated based on intracellular calcium mobilization with ligand stimulation. The CHO cells transiently-expressed human orexin receptor type 2 and apoaequorin were seeded on a 384-well plate by 2,000 cells/well, and then incubated for 16-22 hours. After the plate was returned to room temperature, Coelenterazine hcp (final concentration: 1 μM) was added to the plate, and the plate was allowed to stand at room temperature for 2 hours. And then, Orexin A or each test compound was added to the plate, and the luminescence of the cells was measured with FDSS7000 (Hamamatsu Photonics K. K.), wherein Orexin A and each test compound were dissolved in DMSO (final concentration: 0.1%), and diluted with a buffer (Hanks, 20 mM HEPES, 0.1% BSA). The agonist activity of each test compound for orexin receptor type 2 was calculated as relative percentage of luminescence for the luminescence (100%) of Orexin A (100 μM).

Row | Compound | Agonist Activity (%)
1 | CC(C)N1CCN(c2cccc(Cl)c2NC(=O)N2CCC(C)(c3noc([C@@H]4C[C@@H]4C)n3)CC2)CC1 [Example 118, N-{2-chloro-6-[4-(propan-2-yl)piperazin-1-yl]phenyl}-4-methyl-4-{5-[(1R,2S)-2-methylcyclopropyl]-1,2,4-oxadiazol-3-yl}piperidine-1-carboxamide] | 149%
2 | CCc1nc(C2(F)CCN(C(=O)Nc3c(Cl)cccc3N3CCN(C(C)C)CC3)CC2)no1 [Example 95, N-{2-chloro-6-[4-(propan-2-yl)piperazin-1-yl]phenyl}-4-(5-ethyl-1,2,4-oxadiazol-3-yl)-4-fluoropiperidine-1-carboxamide] | 178%
3 | CC(C)c1ccc(-c2cccc(F)c2NC(=O)N2CCC(C)(c3noc(C4CC4)n3)CC2)cn1 [Example 60, 4-(5-cyclopropyl-1,2,4-oxadiazol-3-yl)-N-{2-fluoro-6-[6-(propan-2-yl)pyridin-3-yl]phenyl}-4-methylpiperidine-1-carboxamide] | 102%
4 | CC(C)N1CCN(c2cccc(Cl)c2NC(=O)N2CCC(C)(c3csc(C4CC4)n3)CC2)CC1 [Example 96, N-{2-chloro-6-[4-(propan-2-yl)piperazin-1-yl]phenyl}-4-(2-cyclopropyl-1,3-thiazol-4-yl)-4-methylpiperidine-1-carboxamide] | 160%
5 | CC(C)c1noc(C2(C)CCN(C(=O)Nc3ccccc3N3CCN(C(C)C)CC3)CC2)n1.Cl [Example 163, 4-methyl-4-[3-(propan-2-yl)-1,2,4-oxadiazol-5-yl]-N-{2-[4-(propan-2-yl)piperazin-1-yl]phenyl}piperidine-1-carboxamide hydrochloride] | 110%
6 | COCC(C)N1CCN(c2ccccc2NC(=O)N2CCC(c3ccc(C)cc3)CC2)CC1 (centres unmarked) [Example 126, N-{2-[4-(1-methoxypropan-2-yl)piperazin-1-yl]phenyl}-4-(4-methylphenyl)piperidine-1-carboxamide] | 139%
7 | Cc1ccccc1C1CCN(C(=O)Nc2c(F)cccc2N2CCN(C(C)C)CC2)CC1 [Example 37, N-{2-fluoro-6-[4-(propan-2-yl)piperazin-1-yl]phenyl}-4-(2-methylphenyl)piperidine-1-carboxamide] | 47%
8 | CC(C)N1CC=C(c2cccc(Cl)c2NC(=O)N2CCC(C)(c3noc(C4CC4)n3)CC2)CC1 [Example 130, N-{2-chloro-6-[1-(propan-2-yl)-1,2,3,6-tetrahydropyridin-4-yl]phenyl}-4-(5-cyclopropyl-1,2,4-oxadiazol-3-yl)-4-methylpiperidine-1-carboxamide] | 142%
9 | COc1cccc(C2=CCN(C(C)C)CC2)c1NC(=O)N1CCC(c2ccc(C)cc2)CC1 [Example 47, N-{2-methoxy-6-[1-(propan-2-yl)-1,2,3,6-tetrahydropyridin-4-yl]phenyl}-4-(4-methylphenyl)piperidine-1-carboxamide] | 165%
10 | CC(C)N1CCC(c2cccc(F)c2NC(=O)N2CCC(c3cc(C4CC4)on3)CC2)CC1 [Example 51, 4-(5-cyclopropyl-1,2-oxazol-3-yl)-N-{2-fluoro-6-[1-(propan-2-yl)piperidin-4-yl]phenyl}piperidine-1-carboxamide] | 151%
11 | Cc1ccc(C2CCN(C(=O)Nc3ccccc3N3CCN(C(C)C)C(C)C3)CC2)cc1 (racemic) [Example 28, Rac-4-(4-methylphenyl)-N-{2-[3-methyl-4-(propan-2-yl)piperazin-1-yl]phenyl}piperidine-1-carboxamide] | 104%
12 | CCN1CCN(c2ccccc2NC(=O)N2CCC(c3ccc(OC)cc3)CC2)CC1 [Example 1, N-[2-(4-Ethylpiperazin-1-yl)phenyl]-4-(4-methoxyphenyl)piperidine-1-carboxamide] | 77%
13 | Cc1ccc(C2CCN(C(=O)Nc3c(C(=O)N(C)C)cccc3N3CCN(C(C)C)CC3)CC2)cc1 [Example 33, N-{2-(dimethylcarbamoyl)-6-[4-(propan-2-yl)piperazin-1-yl]phenyl}-4-(4-methylphenyl)piperidine-1-carboxamide] | 150%
14 | Cc1cc(C2(C)CCN(C(=O)Nc3c(Cl)cccc3N3CCN(C(C)C)CC3)CC2)no1 [Example 84, N-{2-chloro-6-[4-(propan-2-yl)piperazin-1-yl]phenyl}-4-methyl-4-(5-methyl-1,2-oxazol-3-yl)piperidine-1-carboxamide] | 110%
15 | CC(C)N1CCN(c2cccc(Cl)c2NC(=O)N2CCC(C)(c3noc(CC(F)(F)F)n3)CC2)CC1 [Example 119, N-{2-chloro-6-[4-(propan-2-yl)piperazin-1-yl]phenyl}-4-methyl-4-[5-(2,2,2-trifluoroethyl)-1,2,4-oxadiazol-3-yl]piperidine-1-carboxamide] | 154%
16 | Cc1ccc(C2CCN(C(=O)Nc3c(F)cccc3C3CCN(C(C)CF)CC3)CC2)cc1 (centres unmarked) [Example 137, N-{2-fluoro-6-[1-(1-fluoropropan-2-yl)piperidin-4-yl]phenyl}-4-(4-methylphenyl)piperidine-1-carboxamide] | 126%
17 | Cc1ccc(C2CCN(C(=O)Nc3cccc(F)c3N3CCN(C(C)C)CC3)CC2)cc1 [Example 11, N-{3-fluoro-2-[4-(propan-2-yl)piperazin-1-yl]phenyl}-4-(4-methylphenyl)piperidine-1-carboxamide] | 142%
18 | Cc1ccc(C2CCN(C(=O)Nc3c(F)cccc3N3C[C@@H]4C[C@H]3CN4C(C)C)CC2)cc1 [Example 150, N-{2-fluoro-6-[(1S,4S)-5-(propan-2-yl)-2,5-diazabicyclo[2.2.1]heptan-2-yl]phenyl}-4-(4-methylphenyl)piperidine-1-carboxamide] | 116%
19 | CC(C)N1CCN(c2cccc(Cl)c2NC(=O)N2CCC(C)(c3nnc(C4CC4)s3)CC2)CC1 [Example 102, N-{2-chloro-6-[4-(propan-2-yl)piperazin-1-yl]phenyl}-4-(5-cyclopropyl-1,3,4-thiadiazol-2-yl)-4-methylpiperidine-1-carboxamide] | 160%
20 | CC(C)N1CCN(c2cccc(F)c2NC(=O)N2C3CCC2CC(c2nc(C4CC4)no2)C3)CC1 (centres unmarked) [Example 32, 3-(3-cyclopropyl-1,2,4-oxadiazol-5-yl)-N-{2-fluoro-6-[4-(propan-2-yl)piperazin-1-yl]phenyl}-8-azabicyclo[3.2.1]octane-8-carboxamide] | 30%
21 | CC(C)N1CC=C(c2cccc(F)c2NC(=O)N2CCC(C)(c3cc(C4CC4)on3)CC2)CC1 [Example 55, 4-(5-cyclopropyl-1,2-oxazol-3-yl)-N-{2-fluoro-6-[1-(propan-2-yl)-1,2,3,6-tetrahydropyridin-4-yl]phenyl}-4-methylpiperidine-1-carboxamide] | 154%
22 | CC(C)N1CCN(c2cccc(F)c2NC(=O)N2CCC(C)(c3noc(C4CC(F)(F)C4)n3)CC2)CC1 [Example 75, 4-[5-(3,3-difluorocyclobutyl)-1,2,4-oxadiazol-3-yl]-N-{2-fluoro-6-[4-(propan-2-yl)piperazin-1-yl]phenyl}-4-methylpiperidine-1-carboxamide] | 131%
23 | CC(C)[C@@H]1CO[C@H](c2cccc(Cl)c2NC(=O)N2CCC(C)(c3noc(C4CC4)n3)CC2)CN1 (racemic) [Example 168, Rac-N-{2-chloro-6-[(2R,5R)-5-(propan-2-yl)morpholin-2-yl]phenyl}-4-(5-cyclopropyl-1,2,4-oxadiazol-3-yl)-4-methylpiperidine-1-carboxamide] | 184%
24 | CC1(c2noc(C3CC3)n2)CCN(C(=O)Nc2c(F)cccc2C2=CCOCC2)CC1 [Example 56, 4-(5-cyclopropyl-1,2,4-oxadiazol-3-yl)-N-[2-(3,6-dihydro-2H-pyran-4-yl)-6-fluorophenyl]-4-methylpiperidine-1-carboxamide] | 44%
25 | Cc1ccc(C2CCN(C(=O)Nc3ccccc3N3CCN(C)CC3)CC2)cc1 [Example 123, 4-(4-methylphenyl)-N-[2-(4-methylpiperazin-1-yl)phenyl]piperidine-1-carboxamide] | 105%
26 | CCOc1cccc(C2CCN(C(C)CC)CC2)c1NC(=O)N1CCC(c2ccc(C)cc2)CC1 (centres unmarked) [Example 128, N-{2-[1-(butan-2-yl)piperidin-4-yl]-6-ethoxyphenyl}-4-(4-methylphenyl)piperidine-1-carboxamide] | 136%
27 | CC(C)N1CCN(c2cccc(Cl)c2NC(=O)N2CCC(C)(c3noc(C(F)(F)F)n3)CC2)CC1 [Example 86, N-{2-chloro-6-[4-(propan-2-yl)piperazin-1-yl]phenyl}-4-methyl-4-[5-(trifluoromethyl)-1,2,4-oxadiazol-3-yl]piperidine-1-carboxamide] | 138%
28 | CC(C)N1CCN(c2cccc(Cl)c2NC(=O)N2CCC(C)(c3noc(C4CCCC4)n3)CC2)CC1 [Example 74, N-{2-chloro-6-[4-(propan-2-yl)piperazin-1-yl]phenyl}-4-(5-cyclopentyl-1,2,4-oxadiazol-3-yl)-4-methylpiperidine-1-carboxamide] | 145%
29 | CC(C)N1C[C@H]2C[C@@H]1CN2c1cccc(F)c1NC(=O)N1CCC(C)(c2noc(C3CC3)n2)CC1 [Example 152, 4-(5-cyclopropyl-1,2,4-oxadiazol-3-yl)-N-{2-fluoro-6-[(1R,4R)-5-(propan-2-yl)-2,5-diazabicyclo[2.2.1]heptan-2-yl]phenyl}-4-methylpiperidine-1-carboxamide] | 136%
